Measured values reported in patent publication US12441754B2, “Galactoside inhibitor of galectins” (GALECTO BIOTECH AB, priority 2019, dated 2025).
Like-named read-outs stand apart in the source and are kept apart here.

What was measured:
Galectin-1 = Galectin-1 (Homo sapiens, UniProt P09382); experiment: fluorescence anisotropy assay, compound as inhibitor of galectin / fluorescein tagged saccharide probe interaction; format: binding
Description: (§1) Anal. Biochem. 334: 36-47, (Sörme et al., 2004) and Monovalent interactions of Galectin-1 By Salomonsson, Emma; Larumbe, Amaia; Tejler, Johan; Tullberg, Erik; Rydberg, Hanna; Sundin, Anders; Khabut, Areej; Frejd, Torbjorn; Lobsanov, Yuri D.; Rini, James M.; et al, From Biochemistry (2010), 49(44), 9518-9532, (Salomonsson et al., 2010).

Galectin-3 = Galectin-3 (Homo sapiens, UniProt P17931); experiment: as above; format: binding
Description: as §1

Galectin-3, sequence (P17931 whole entry): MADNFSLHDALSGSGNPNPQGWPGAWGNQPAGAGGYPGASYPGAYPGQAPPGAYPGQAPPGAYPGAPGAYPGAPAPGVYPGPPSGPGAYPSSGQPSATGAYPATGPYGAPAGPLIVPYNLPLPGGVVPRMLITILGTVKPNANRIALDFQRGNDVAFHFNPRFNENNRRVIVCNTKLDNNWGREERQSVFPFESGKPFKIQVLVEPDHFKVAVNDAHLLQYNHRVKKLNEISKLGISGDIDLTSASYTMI
Galectin-1, sequence (P09382 whole entry): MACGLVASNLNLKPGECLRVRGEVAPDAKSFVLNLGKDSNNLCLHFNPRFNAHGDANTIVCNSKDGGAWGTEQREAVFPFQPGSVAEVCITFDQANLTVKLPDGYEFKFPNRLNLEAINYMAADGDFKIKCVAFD

Kd (Galectin-1) [nM]	Kd (Galectin-3) [nM]	SMILES	Kd (Galectin-1; read-out: Galectin-1 Kd) [nM]
30	370	CO[C@@H]1[C@@H](n2cc(-c3nc(Cl)cs3)nn2)[C@@H](O)[C@@H](CO)O[C@@H]1Sc1cnc(C#N)c(Cl)c1 [Example 14, 3-Chloro-2-cyanopyridin-5-yl 3-[4-(4-chlorothiazol-2-yl)-1H-1,2,3-triazol-1-yl]-3-deoxy-2-O-methyl-1-thio-α-D-galactopyranoside]	
80	3000	CNC(=O)c1ccc(Br)cc1S[C@H]1OC(CO)[C@H](O)C(n2cc(-c3nccs3)nn2)C1OC (stereo partly drawn) [Example 61, 5-Bromo-2-(N-methyl-carbonyl)phenyl 3-deoxy-2-O-methyl-3-[4-(2-thiazolyl)-1H-1,2,3-triazol-1-yl]-1-thio-α-D-galactopyranoside]	
540	4100	C#Cc1cnc(C#N)c(S[C@H]2O[C@H](CO)[C@H](O)[C@H](n3cc(-c4csc(N)n4)nn3)[C@H]2O)c1 [Example 84, 2-Cyano-5-ethynylpyridin-3-yl 3-[4-(2-aminothiazol-4-yl)-1H-1,2,3-triazol-1-yl]-3-deoxy-1-thio-α-D-galactopyranoside]	
110	7700	C#Cc1cnc(C#N)c(S[C@H]2O[C@H](CO)[C@H](O)[C@H](n3cc(-c4csc(N)n4)nn3)[C@H]2OC)c1 [Example 85, 2-Cyano-5-ethynylpyridin-3-yl 3-[4-(2-aminothiazol-4-yl)-1H-1,2,3-triazol-1-yl]-3-deoxy-2-O-methyl-1-thio-α-D-galactopyranoside]	
39	180	CNC(=O)c1ccc(Br)cc1S[C@H]1OC(CO)[C@H](O)C(n2cc(-c3nc(Cl)cs3)nn2)C1OC (stereo partly drawn) [Example 60, 5-Bromo-2-(N-methyl-carbonyl)phenyl 3-[4-(4-chlorothiazol-2-yl)-1H-1,2,3-triazol-1-yl]-3-deoxy-2-O-methyl-1-thio-α-D-galactopyranoside]	
260	3500	CO[C@@H]1[C@@H](n2cc(-c3nccs3)nn2)[C@@H](O)[C@@H](CO)O[C@@H]1Sc1cc(Br)ccc1Cl [Example 67, 5-Bromo-2-chlorophenyl 3-deoxy-2-O-methyl-3-[4-(2-thiazolyl)-1H-1,2,3-triazol-1-yl]-1-thio-α-D-galactopyranoside]	
56	200	CO[C@@H]1[C@@H](n2cc(-c3csc(Cl)n3)nn2)[C@@H](O)[C@@H](CO)O[C@@H]1Sc1cc(Cl)cnc1C#N [Example 15, 5-Chloro-2-cyanopyridin-3-yl 3-[4-(2-chlorothiazol-4-yl)-1H-1,2,3-triazol-1-yl]-3-deoxy-2-O-methyl-1-thio-α-D-galactopyranoside]	
21	140	CO[C@@H]1[C@@H](n2cc(-c3nc(Cl)cs3)nn2)[C@@H](O)[C@@H](CO)O[C@@H]1Sc1cc(Br)ccc1C#N [Example 57, 5-Bromo-2-cyanophenyl 3-[4-(4-chlorothiazol-2-yl)-1H-1,2,3-triazol-1-yl]-3-deoxy-2-O-methyl-1-thio-α-D-galactopyranoside]	
190	700	CO[C@@H]1[C@@H](n2cc(-c3nc(Cl)cs3)nn2)[C@@H](O)[C@@H](CO)O[C@@H]1Sc1cc(C)cnc1C#N [Example 36, 2-Cyano-5-methylpyridin-3-yl 3-[4-(4-chlorothiazol-2-yl)-1H-1,2,3-triazol-1-yl]-3-deoxy-2-O-methyl-1-thio-α-D-galactopyranoside]	
130	9300	OC[C@H]1O[C@H](Sc2cc(Cl)c(F)c(Cl)c2)C[C@@H](n2cc(-c3csc(O)n3)nn2)[C@H]1O [Example 41, 3,5-Dichloro-4-fluorophenyl 2,3-dideoxy-3-[4-(2-hydroxythiazol-4-yl)-1H-1,2,3-triazol-1-yl]-1-thio-α-D-galactopyranoside]	
460	240	CO[C@@H]1[C@@H](n2cc(-c3nc(C)c(Cl)s3)nn2)[C@@H](O)[C@@H](CO)O[C@@H]1Sc1cc(Br)ccc1C#N [Example 65, 5-Bromo-2-cyanophenyl 3-[4-(5-chloro-4-methylthiazol-2-yl)-1H-1,2,3-triazol-1-yl]-3-deoxy-2-O-methyl-1-thio-α-D-galactopyranoside]	
22	170	CCO[C@@H]1[C@@H](n2cc(-c3nc(Cl)cs3)nn2)[C@@H](O)[C@@H](CO)O[C@@H]1Sc1cc(Br)cnc1C#N [Example 86, 5-Bromo-2-cyanopyridin-3-yl 3-[4-(4-chlorothiazol-2-yl)-1H-1,2,3-triazol-1-yl]-3-deoxy-2-O-ethyl-1-thio-α-D-galactopyranoside]	
500	3000	Cc1sc(N)nc1-c1cn(C2C(O)[C@@H](Sc3cnc(C(F)(F)F)c(Br)c3)OC(CO)[C@@H]2O)nn1 (stereo partly shown) [Example 33]	
56	3200	CO[C@@H]1[C@@H](n2cc(-c3csc(N)n3)nn2)[C@@H](O)[C@@H](CO)O[C@@H]1Sc1cc(Cl)ccc1C#N [Example 73, 5-Chloro-2-cyanophenyl 3-[4-(2-aminothiazol-4-yl)-1H-1,2,3-triazol-1-yl]-3-deoxy-2-O-methyl-1-thio-α-D-galactopyranoside]	
96	950	N#Cc1ncc(Cl)cc1S[C@H]1O[C@H](CO)[C@H](O)[C@H](n2cc(-c3nccs3)nn2)[C@H]1OCc1cc(F)c(O)c(F)c1 [Example 6, 5-Chloro-2-cyanopyridin-3-yl 3-deoxy-2-O-(3,5-difluoro-4-hydroxybenzyl)-3-[4-(2-thiazolyl)-1H-1,2,3-triazol-1-yl]-1-thio-α-D-galactopyranoside]	
440	3000	CCO[C@@H]1[C@@H](n2cc(-c3csc(N)n3)nn2)[C@@H](O)[C@@H](CO)O[C@@H]1Sc1cc(Cl)cnc1C#N [Example 72, 5-Chloro-2-cyanopyridin-3-yl 3-[4-(2-aminothiazol-4-yl)-1H-1,2,3-triazol-1-yl]-3-deoxy-2-O-ethyl-1-thio-α-D-galactopyranoside]	
79	1800	N#Cc1ncc(Cl)cc1S[C@H]1O[C@H](CO)[C@H](O)[C@H](n2cc(-c3csc(N)n3)nn2)[C@H]1OCc1ccccc1 [Example 19, 5-Chloro-2-cyanopyridin-3-yl 3-[4-(2-aminothiazol-4-yl)-1H-1,2,3-triazol-1-yl]-2-O-benzyl-3-deoxy-1-thio-α-D-galactopyranoside]	
53	1400	CO[C@@H]1[C@@H](n2cc(-c3nc(C)cs3)nn2)[C@@H](O)[C@@H](CO)O[C@@H]1Sc1cc(Br)cnc1C#N [Example 34, 5-Bromo-2-cyanopyridin-3-yl 3-deoxy-3-[4-(4-methylthiazol-2-yl)-1H-1,2,3-triazol-1-yl]-2-O-methyl-1-thio-α-D-galactopyranoside]	
730	10300	N#Cc1ccc(S[C@@H]2C[C@@H](n3cc(-c4csc(N)n4)nn3)[C@@H](O)[C@@H](CO)O2)cc1Cl [Example 42, 3-Chloro-4-cyanophenyl 3-[4-(2-aminothiazol-4-yl)-1H-1,2,3-triazol-1-yl]-2,3-dideoxy-1-thio-α-D-galactopyranoside]	

SMILES	Kd (Galectin-1) [nM]	Kd (Galectin-3) [nM]	Kd (Galectin-1; read-out: Galectin-1 Kd) [nM]
CO[C@@H]1[C@@H](n2cc(-c3csc(N)n3)nn2)[C@@H](O)[C@@H](CO)O[C@@H]1Sc1cc(Cl)c(F)c(Cl)c1 [Example 16, 3,5-Dichloro-4-fluorophenyl 3-[4-(2-aminothiazol-4-yl)-1H-1,2,3-triazol-1-yl]-3-deoxy-2-O-methyl-1-thio-α-D-galactopyranoside]		8400	69
